Data taken from article PMC4188605, “Biochemical and Pharmacological Characterization of the Human Lymphocyte Antigen B-Associated Transcript 5 (BAT5/ABHD16A)” (PLoS ONE, 2014).
Entries after “also recorded” stand apart in the source; their conditions may differ.

Columns and labels:
hABHD6 = molecular target: T1, hABHD6 (Homo sapiens, UniProt Q9BV23); experiment: Hydrolase activity assay, hABHD6-HEK lysates; format: biochemical; settings: hABHD6-HEK lysates; read-out: IC50
T1 construct: expressed in transfected cells; host or cells: HEK293
T1 sequence (Q9BV23 1-337): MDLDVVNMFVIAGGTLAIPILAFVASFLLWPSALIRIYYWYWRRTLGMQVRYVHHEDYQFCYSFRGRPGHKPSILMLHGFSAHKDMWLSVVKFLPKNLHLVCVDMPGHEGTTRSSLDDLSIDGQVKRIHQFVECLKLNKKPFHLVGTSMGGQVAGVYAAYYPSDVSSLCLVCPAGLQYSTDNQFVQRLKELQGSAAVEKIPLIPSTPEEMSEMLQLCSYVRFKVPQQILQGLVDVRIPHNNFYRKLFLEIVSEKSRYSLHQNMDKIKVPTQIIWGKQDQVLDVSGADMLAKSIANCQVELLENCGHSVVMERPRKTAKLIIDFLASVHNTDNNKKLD

LYPLA1 = tested on: LYPLA1; parameters: method as in PMID 20418879; settings: originally reported; read-out: IC50 in vitro towards LYPLA1; cited from earlier work
BAT5 = molecular target: T2, BAT5 (Mus musculus, UniProt Q9Z1Q2); experiment: Competitive ABPP, mouse brain membrane proteome: BAT5 band; settings: tested concentration range 10^−8–10^−5 M
T2 sequence (Q9Z1Q2 1-558): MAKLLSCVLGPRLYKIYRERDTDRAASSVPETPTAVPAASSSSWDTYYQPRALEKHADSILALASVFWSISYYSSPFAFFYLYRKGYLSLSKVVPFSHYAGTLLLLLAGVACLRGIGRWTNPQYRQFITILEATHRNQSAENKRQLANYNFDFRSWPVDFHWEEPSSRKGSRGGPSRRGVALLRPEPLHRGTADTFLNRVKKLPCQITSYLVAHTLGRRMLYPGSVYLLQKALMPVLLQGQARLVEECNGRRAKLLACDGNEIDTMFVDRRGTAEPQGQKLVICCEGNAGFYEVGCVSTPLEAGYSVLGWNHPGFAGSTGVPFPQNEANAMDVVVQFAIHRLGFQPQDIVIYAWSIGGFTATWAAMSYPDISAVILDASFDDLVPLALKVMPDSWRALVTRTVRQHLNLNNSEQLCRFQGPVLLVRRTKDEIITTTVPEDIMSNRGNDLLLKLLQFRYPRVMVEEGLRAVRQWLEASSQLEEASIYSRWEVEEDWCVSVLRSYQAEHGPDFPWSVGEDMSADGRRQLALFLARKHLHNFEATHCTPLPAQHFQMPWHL

ABHD6 = molecular target: T3, ABHD6 (Mus musculus, UniProt Q8R2Y0); experiment: Competitive ABPP, mouse brain membrane proteome: ABHD6 band; settings: at the highest concentration (10^−5 M)
T3 sequence (Q8R2Y0 1-336): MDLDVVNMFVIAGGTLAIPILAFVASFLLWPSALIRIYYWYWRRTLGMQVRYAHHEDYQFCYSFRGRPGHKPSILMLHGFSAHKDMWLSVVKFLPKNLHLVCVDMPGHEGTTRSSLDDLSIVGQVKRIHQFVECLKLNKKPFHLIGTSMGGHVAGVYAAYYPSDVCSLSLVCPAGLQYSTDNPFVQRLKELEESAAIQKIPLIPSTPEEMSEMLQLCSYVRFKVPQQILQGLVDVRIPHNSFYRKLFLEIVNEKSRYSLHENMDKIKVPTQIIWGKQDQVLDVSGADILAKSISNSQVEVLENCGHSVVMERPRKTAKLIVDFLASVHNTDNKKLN

ABHD12 = molecular target: T4, ABHD12 (Mus musculus, UniProt Q99LR1); experiment: Competitive ABPP, mouse brain membrane proteome: ABHD12 band; settings: tested concentration range 10^−8–10^−5 M
T4 sequence (Q99LR1 1-398): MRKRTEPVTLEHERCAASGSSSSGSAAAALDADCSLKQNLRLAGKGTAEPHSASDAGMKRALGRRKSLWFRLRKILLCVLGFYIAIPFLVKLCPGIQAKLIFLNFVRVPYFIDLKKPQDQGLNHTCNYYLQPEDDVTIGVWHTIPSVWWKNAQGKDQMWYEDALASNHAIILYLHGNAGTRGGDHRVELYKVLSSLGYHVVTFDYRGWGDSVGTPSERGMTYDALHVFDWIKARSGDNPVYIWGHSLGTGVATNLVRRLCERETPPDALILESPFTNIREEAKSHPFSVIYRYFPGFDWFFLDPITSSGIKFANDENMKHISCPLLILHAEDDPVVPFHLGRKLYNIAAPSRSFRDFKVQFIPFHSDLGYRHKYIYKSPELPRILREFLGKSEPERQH

MAGL = molecular target: T5, MAGL (Mus musculus, UniProt O35678); experiment: Competitive ABPP, mouse brain membrane proteome: MAGL doublet; settings: at the highest concentration (10^−5 M)
T5 sequence (O35678 1-303): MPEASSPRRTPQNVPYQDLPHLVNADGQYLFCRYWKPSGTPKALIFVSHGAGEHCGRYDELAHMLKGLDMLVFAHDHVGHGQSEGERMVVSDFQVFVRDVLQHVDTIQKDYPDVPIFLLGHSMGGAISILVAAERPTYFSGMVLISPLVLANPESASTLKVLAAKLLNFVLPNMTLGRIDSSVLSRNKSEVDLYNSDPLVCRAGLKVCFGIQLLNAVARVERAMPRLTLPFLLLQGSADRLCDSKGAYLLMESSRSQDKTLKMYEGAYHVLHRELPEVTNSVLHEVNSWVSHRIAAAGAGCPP

LYPLA1/2 = experiment: Competitive ABPP, mouse brain membrane proteome: LYPLA1/2 band; settings: tested concentration range 10^−8–10^−5 M

IC50 (hABHD6): 52.5 nM
SMILES: CCCCCCCCCC[C@@H]1C(=O)O[C@H]1CCc1ccc(OC)c(OC)c1 [Palmostatin B, palmostatin B]
IC50 (LYPLA1): 670 nM
inhibition of probe binding to BAT5 (BAT5): dose-dependently inhibited probe binding; also recorded: dose-dependently inhibits probe labeling
inhibition of probe binding to ABHD6 (ABHD6): inhibited probe binding; also recorded: also inhibited
inhibition of probe binding to ABHD12 (ABHD12): dose-dependently inhibited probe binding; also recorded: dose-dependently inhibits probe labeling
inhibition of probe binding to MAGL (MAGL): inhibited probe binding; also recorded: also inhibited
inhibition of probe binding to LYPLA1/2 (LYPLA1/2): dose-dependently inhibited probe binding; also recorded: dose-dependently inhibits probe labeling
